Measurements reported in patent publication US8258114B2, “Modulation of glucose-6-phosphatase translocase expression” (Isis Pharmaceuticals, Inc., priority 2004, dated 2012).

Assays:
Type in all cases: in vivo, mouse
[1] = tested on: glucose-6-phosphatase translocase mRNA; assay: Target mRNA reduction in liver of db/db mice (Example 10); conditions: 25 mg/kg s.c. twice weekly, end of study
Description: Seven-week old male C57B1/6J-Lepr db/db mice (Jackson Laboratory, Bar Harbor, Me.) were fed a diet with a fat content of about 14% and were subcutaneously injected with one or more of the oligomeric compounds of the invention or a control compound at a dose of 25 mg/kg two times per week. Glucose-6-phosphatase translocase antisense oligonucleotides used were ISIS 148985 (SEQ ID NO: 118) and ISIS 149008 (SEQ ID NO: 141). ISIS 116847 (SEQ ID NO: 143), targeted to mouse PTEN, was used as a positive control. The scrambled control oligonucleotide ISIS 141923 ([…], incorporated herein as SEQ ID NO: 144) served as a negative control along with saline-injected animals. ISIS 141923 and ISIS 116847 are chimeric oligonucleotides (“gapmers”) 20 nucleotides in length, composed of a central “gap” region consisting of 10 2′-deoxynucleotides, which is flanked on both sides (5′ and 3′) by five-nucleotide “wings”. The wings are composed of 2′-O-(2-methoxyethyl) nucleotides, also known as 2′-MOE nucleotides. The internucleoside (backbone) linkages are phosphorothioate throughout the oligonucleotide. All cytidine residues are 5-methylcytidines.
48 hours after the final treatment, mice were sacrificed and target levels were evaluated in liver. RNA isolation and target mRNA expression level quantitation were performed as described by other examples herein.
Glucose-6-phosphatase translocase mRNA levels in db/db mouse livers were measured at the end of study using RIBOGREEN™ RNA quantification reagent (Molecular Probes, Inc. Eugene, Oreg.) as taught in previous examples above. Unless otherwise noted, data are expressed as the average percent inhibition from 5 animals per treatment group.

db/db mice = assay: Oral glucose tolerance test in db/db mice (Table 10)
Description: The mice described in Example 11 were evaluated for performance on glucose tolerance tests after the 6th dose of saline or antisense oligonucleotides. Through measurement of glucose levels following the administration of a bolus of glucose, tolerance tests assess the physiological response to a glucose challenge.
Oral glucose tolerance tests (OGTT) were performed during week 3 of treatment with saline, ISIS 116847 (targeted to PTEN, SEQ ID NO: 143), ISIS 149008 (SEQ ID NO: 141), ISIS 148985 (SEQ ID NO: 118), or ISIS 141923 (SEQ ID NO: 144). To provide a baseline glucose level, fasted blood glucose levels were measured before the challenge. Glucose was administered by oral gavage via an 18 g gavage needle at a dose of 1 g/kg. Plasma glucose levels were measured for 30, 60, 90 and 120 minutes post-challenge using an Ascencia Glucometer Elite XL (Bayer, Tarrytown, N.Y.).
The results are presented in Table 10 as the average plasma glucose level (in mg/dL) per time point from each treatment group (n=7).

[2] = Plasma triglycerides, cholesterol, free fatty acids, transaminases and lactate in db/db mice (Table 7)
Description: Seven-week old male C57B1/6J-Lepr db/db mice (Jackson Laboratory, Bar Harbor, Me.) were fed a diet with a fat content of about 14% (Formulab Diet 5008) and were subcutaneously injected with ISIS 116847 (SEQ ID NO: 143), ISIS 141923 (SEQ ID NO: 144), or ISIS 148985 (SEQ ID NO: 118), an antisense inhibitor of glucose-6-phosphatase translocase, […] weeks. […] Saline-injected animals served as controls. 48 hours after the eighth and final dose was administered, mice were sacrificed and target levels were evaluated in liver. RNA isolation and target mRNA expression level quantitation were performed as described by other examples herein.
To further assess the physiological effects resulting from inhibition of target mRNA, the db/db mice were evaluated at the end of the treatment period for plasma triglycerides, plasma cholesterol, free fatty acids (FFA), lactate and plasma transaminase levels. The transaminases ALT and AST are indicators of liver function. Plasma triglycerides, cholesterol, free fatty acids, and transaminases were measured by routine clinical analyzer instruments (e.g. Olympus Clinical Analyzer, Melville, N.Y.). Results are presented in table 7 as the averages from seven animals per treatment group.

ob/ob mice = assay: Fed and fasted plasma glucose in ob/ob mice; conditions: 25 mg/kg s.c. twice weekly; for fasted plasma glucose: week 3, overnight fast, saline 297
Description: Seven-week old male C57B1/6J-Lep ob/ob mice (Jackson Laboratory, Bar Harbor, Me.) were fed a diet with a fat content of about 22% and were subcutaneously injected with oligonucleotides at a dose of 25 mg/kg two times per week. A total of eight doses were administered. Glucose-6-phosphatase translocase antisense oligonucleotides used were ISIS 148985 (SEQ ID NO: 118) and ISIS 149008 (SEQ ID NO: 141). ISIS 116847 ([…]; incorporated herein as SEQ ID NO: 143), targeted to mouse PTEN, was used as a positive control. Saline-injected animals served as negative controls. Animals were sacrificed 48 hours after the last dose of oligonucleotide was administered, and liver triglycerides, liver glycogen, and target reduction in liver were measured.
The effects of target inhibition on glucose metabolism were evaluated in the ob/ob mice treated as described above. Routine clinical analyzer instruments (Olympus Clinical Analyzer, Melville, N.Y.) were used to measure plasma glucose. Plasma glucose was measured prior to antisense oligonucleotide treatment (week 0) and during the second and fourth week of treatment. Fasted glucose measurements were made during week 3 after an overnight (about 14 hours) fast. Data are presented as the average from seven animals per treatment group.

[3] = 25 mg/kg twice weekly, week 3, 0 min post-glucose challenge (fasted)
[4] = 25 mg/kg twice weekly, week 3, 30 min
[5] = 25 mg/kg twice weekly, week 3, 60 min
[6] = 25 mg/kg twice weekly, week 3, 90 min
[7] = 25 mg/kg twice weekly, week 3, 120 min
[8] = 25 mg/kg twice weekly 4 weeks (25 mg/mL [sic]), saline 0.8
[9] = 25 mg/kg twice weekly 4 weeks (25 mg/mL [sic]), saline 56
[10] = 25 mg/kg twice weekly 4 weeks (25 mg/mL [sic]), saline 59
[11] = 25 mg/kg twice weekly 4 weeks (25 mg/mL [sic]), saline 108
[12] = 25 mg/kg twice weekly 4 weeks (25 mg/mL [sic]), saline 152
[13] = 25 mg/kg twice weekly 4 weeks (25 mg/mL [sic]), saline 213
[14] = week 0 (prior to treatment), saline 339
[15] = dose 12.5 mg/mL [sic], twice weekly 4 weeks
[16] = dose printed 6 mg/mL, twice weekly 4 weeks

CCTTCCCTGAAGGTTCCTCC (chemistry not given here) [ISIS 141923, scrambled control oligonucleotide, negative control, reference compound]
Glucose-6-phosphatase translocase mRNA levels in liver, reduction compared to saline [1]: about 4% | plasma glucose, OGTT (db/db mice; [3]): 284 mg/dL | plasma glucose, OGTT (db/db mice; [4]): 522 mg/dL | plasma glucose, OGTT (db/db mice; [5]): 445 mg/dL | plasma glucose, OGTT (db/db mice; [6]): 338 mg/dL | plasma glucose, OGTT (db/db mice; [7]): 339 mg/dL | Free Fatty Acids [2, 8]: 0.9 mEq/L | ALT [2, 9]: 72 IU/L | AST [2, 10]: 56 IU/L | Lactate [2, 11]: 128 mg/dL | Cholesterol [2, 12]: 167 mg/dL | Plasma Triglycerides [2, 13]: 166 mg/dL

CTGCTAGCCTCTGGATTTGA (chemistry not given here) [ISIS 116847, positive control oligonucleotide targeted to mouse PTEN, reference compound]
fed plasma glucose (ob/ob mice; [14]): approximately 339 mg/dL | fed plasma glucose (ob/ob mice; week 2, saline 401): ~230 mg/dL | fasted plasma glucose (ob/ob mice): approximately 286 mg/dL | fed plasma glucose (ob/ob mice; week 4, saline 372): ~188 mg/dL | Glucose-6-phosphatase translocase mRNA levels in liver, reduction compared to saline [1]: about 8% | plasma glucose, OGTT (db/db mice; [3]): 181 mg/dL | plasma glucose, OGTT (db/db mice; [4]): 441 mg/dL | plasma glucose, OGTT (db/db mice; [5]): 367 mg/dL | plasma glucose, OGTT (db/db mice; [6]): 305 mg/dL | plasma glucose, OGTT (db/db mice; [7]): 286 mg/dL | Free Fatty Acids [2, 8]: 0.8 mEq/L | ALT [2, 9]: 70 IU/L | AST [2, 10]: 62 IU/L | Lactate [2, 11]: 131 mg/dL | Cholesterol [2, 12]: 161 mg/dL | Plasma Triglycerides [2, 13]: 166 mg/dL

GCTCCATAGCGAGGACTCGA (chemistry not given here) [ISIS 148985]
fed plasma glucose (ob/ob mice; [14]): approximately 348 mg/dL | fed plasma glucose (ob/ob mice; week 2, saline 401): ~315 mg/dL | fasted plasma glucose (ob/ob mice): approximately 293 mg/dL | fed plasma glucose (ob/ob mice; week 4, saline 372): ~241 mg/dL | Glucose-6-phosphatase translocase mRNA levels in liver, reduction compared to saline [1]: approximately 19% | plasma glucose, OGTT (db/db mice; [3]): 230 mg/dL | plasma glucose, OGTT (db/db mice; [4]): 494 mg/dL | plasma glucose, OGTT (db/db mice; [5]): 445 mg/dL | plasma glucose, OGTT (db/db mice; [6]): 335 mg/dL | plasma glucose, OGTT (db/db mice; [7]): 355 mg/dL | Free Fatty Acids [2, 8]: 1.1 mEq/L | ALT [2, 9]: 73 IU/L | AST [2, 10]: 48 IU/L | Lactate [2, 11]: 105 mg/dL | Cholesterol [2, 12]: 164 mg/dL | Plasma Triglycerides [2, 13]: 202 mg/dL

TATACAAGTCGGTTTGCCCT (chemistry not given here) [ISIS 149008]
fed plasma glucose (ob/ob mice; [14]): approximately 344 mg/dL | fed plasma glucose (ob/ob mice; week 2, saline 401): ~249 mg/dL | fasted plasma glucose (ob/ob mice): approximately 237 mg/dL | fed plasma glucose (ob/ob mice; week 4, saline 372): ~153 mg/dL | Glucose-6-phosphatase translocase mRNA levels in liver, reduction compared to saline [1]: approximately 82% | plasma glucose, OGTT (db/db mice; 6 mg/kg twice weekly, week 3, 0 min (fasted)): 204 mg/dL | plasma glucose, OGTT (db/db mice; 6 mg/kg twice weekly, week 3, 30 min): 518 mg/dL | plasma glucose, OGTT (db/db mice; 6 mg/kg twice weekly, week 3, 60 min): 468 mg/dL | plasma glucose, OGTT (db/db mice; 6 mg/kg twice weekly, week 3, 90 min): 377 mg/dL | plasma glucose, OGTT (db/db mice; 6 mg/kg twice weekly, week 3, 120 min): 330 mg/dL | plasma glucose, OGTT (db/db mice; 12.5 mg/kg twice weekly, week 3, 0 min (fasted)): 152 mg/dL | plasma glucose, OGTT (db/db mice; 12.5 mg/kg twice weekly, week 3, 30 min): 529 mg/dL | plasma glucose, OGTT (db/db mice; 12.5 mg/kg twice weekly, week 3, 60 min): 427 mg/dL | plasma glucose, OGTT (db/db mice; 12.5 mg/kg twice weekly, week 3, 90 min): 348 mg/dL | plasma glucose, OGTT (db/db mice; 12.5 mg/kg twice weekly, week 3, 120 min): 329 mg/dL | area under the curve (AUC) of OGTT glucose values compared to saline (in words) (db/db mice; 25 mg/kg): significantly reduced the AUC | plasma glucose, OGTT (db/db mice; [3]): 227 mg/dL | plasma glucose, OGTT (db/db mice; [4]): 462 mg/dL | plasma glucose, OGTT (db/db mice; [5]): 326 mg/dL | plasma glucose, OGTT (db/db mice; [6]): 272 mg/dL | plasma glucose, OGTT (db/db mice; [7]): 231 mg/dL | glucose tolerance (in words) (db/db mice; 6.25 to 25 mg/kg): dose-dependent improvement in glucose tolerance | Free Fatty Acids [2, 8]: 0.9 mEq/L | ALT [2, 9]: 68 IU/L | AST [2, 10]: 55 IU/L | Lactate [2, 11]: 129 mg/dL | Cholesterol [2, 12]: 167 mg/dL | Plasma Triglycerides [2, 13]: 197 mg/dL | ALT [2, 15]: 64 IU/L | AST [2, 15]: 56 IU/L | Cholesterol [2, 15]: 172 mg/dL | Free Fatty Acids [2, 15]: 1.0 mEq/L | Lactate [2, 15]: 127 mg/dL | Plasma Triglycerides [2, 15]: 247 mg/dL | ALT [2, 16]: 59 IU/L | AST [2, 16]: 49 IU/L | Cholesterol [2, 16]: 158 mg/dL | Free Fatty Acids [2, 16]: 0.9 mEq/L | Lactate [2, 16]: 125 mg/dL | Plasma Triglycerides [2, 16]: 205 mg/dL
